Laboratory results: publication PMC4399838, “Antipsychotic-Like Effect of the Muscarinic Acetylcholine Receptor Agonist BuTAC in Non-Human Primates” (PLoS ONE, 2015)
“Also recorded” adds a separate entry of the source.

Experiments:
[1] = target: T1, human M2 muscarinic receptor (Homo sapiens, UniProt P08172); set-up: method as in Watt et al. 2013 [10]; details: agonist mode, ref Watt et al. 2013 [10], cited from earlier work
T1 construct: purchased PerkinElmer Life and Analytical Sciences, Boston, MA
T1 sequence (P08172 1-466): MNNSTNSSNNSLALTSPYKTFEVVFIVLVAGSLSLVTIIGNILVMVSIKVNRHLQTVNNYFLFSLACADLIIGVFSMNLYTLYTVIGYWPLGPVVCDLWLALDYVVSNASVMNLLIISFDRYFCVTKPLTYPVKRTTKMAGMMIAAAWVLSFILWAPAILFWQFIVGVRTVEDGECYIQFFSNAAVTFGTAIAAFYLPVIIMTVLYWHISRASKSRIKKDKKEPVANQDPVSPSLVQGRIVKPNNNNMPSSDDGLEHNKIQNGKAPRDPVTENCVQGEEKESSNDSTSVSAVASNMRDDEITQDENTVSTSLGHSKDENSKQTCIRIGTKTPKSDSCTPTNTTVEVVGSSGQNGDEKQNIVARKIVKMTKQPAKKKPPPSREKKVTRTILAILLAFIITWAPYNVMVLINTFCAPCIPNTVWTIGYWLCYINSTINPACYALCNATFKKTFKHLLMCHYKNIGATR

EPS sensitized monkeys = assay: Side effects (EPS) of BuTAC in EPS-sensitized monkeys; format: in vivo, Cebus Apella
Description: Seven male Cebus Apella monkeys were used for evaluation the anti-amphetamine effect and the side effect profile of BuTAC. These monkeys were never before administered antipsychotics and had never experienced EPS, but had previously been administered amphetamine. For further evaluation of the EPS potential of BuTAC, the compound was tested in four male and female monkeys, all sensitized to drug-induced EPS by earlier chronic treatment with classical antipsychotic drugs.
The EPS sensitized monkeys were originally caught in the wild and had been at the laboratory for 13–20 years at the time of testing. The EPS naïve monkeys were born in captivity and had been at the laboratory for 7 years at the time of testing. They were between 11 and 18 years old, when the studies were initiated. The monkeys weighed between 2.5 kg (smallest female) and 5 kg (largest male). Their weight was monitored weekly and they were regularly checked by a veterinarian.
The rated primate behaviours and symptoms were the following: unrest, stereotypy, arousal, sedation and bradykinesia (Table 1). All monkeys were videotaped in 90-sec. sessions at specific time points throughout the test sessions. The videotapes were rated for amphetamine-induced behaviours and EPS by two experienced raters blinded to the treatment of the animal by means of a rating scale adapted from Peacock et al. and previously described by Andersen et al. (Table 1). In case of any discrepancy between the two ratings, the recording in question was re-evaluated and a rating agreed upon. The monkeys were videotaped at t = 30, 60, 90, 135, 150, 165, 180, 240, 300 min after BuTAC (or vehicle) administration. For the combination studies, d-amphetamine was injected at t = 120 min. Oral dyskinesia was measured in counts per 90 sec. The severity of other behaviours and symptoms were rated on a scale ranging from 0 (not present) to 6 (extreme presence).
For evaluation of anti-amphetamine effects, BuTAC was tested in doses of 0.001, 0.003, 0.01 mg/kg in combination with 0.5 mg/kg of d-amphetamine. BuTAC or peanut oil vehicle was injected s.c. at approximately 9 a.m. Pre-treatment time before s.c. injection of amphetamine was 120 min. For evaluation of side effects, BuTAC was tested alone at doses of 0.001, 0.003 and 0.01 mg/kg in antipsychotic-naïve monkeys and at doses of 0.003 and 0.01 mg/kg in monkeys sensitized to extrapyramidal side effects (EPS) by earlier long-term treatment with first generation antipsychotics. […] None of the animals were sacrificed.

[2] = target: T2, human M3 muscarinic receptor (Homo sapiens, UniProt P20309); assay: GTP-γ-[35S] binding, antibody capture SPA (agonist and antagonist mode); format: biochemical
T2 construct: purchased PerkinElmer Life and Analytical Sciences, Boston, MA
T2 sequence (P20309 whole entry): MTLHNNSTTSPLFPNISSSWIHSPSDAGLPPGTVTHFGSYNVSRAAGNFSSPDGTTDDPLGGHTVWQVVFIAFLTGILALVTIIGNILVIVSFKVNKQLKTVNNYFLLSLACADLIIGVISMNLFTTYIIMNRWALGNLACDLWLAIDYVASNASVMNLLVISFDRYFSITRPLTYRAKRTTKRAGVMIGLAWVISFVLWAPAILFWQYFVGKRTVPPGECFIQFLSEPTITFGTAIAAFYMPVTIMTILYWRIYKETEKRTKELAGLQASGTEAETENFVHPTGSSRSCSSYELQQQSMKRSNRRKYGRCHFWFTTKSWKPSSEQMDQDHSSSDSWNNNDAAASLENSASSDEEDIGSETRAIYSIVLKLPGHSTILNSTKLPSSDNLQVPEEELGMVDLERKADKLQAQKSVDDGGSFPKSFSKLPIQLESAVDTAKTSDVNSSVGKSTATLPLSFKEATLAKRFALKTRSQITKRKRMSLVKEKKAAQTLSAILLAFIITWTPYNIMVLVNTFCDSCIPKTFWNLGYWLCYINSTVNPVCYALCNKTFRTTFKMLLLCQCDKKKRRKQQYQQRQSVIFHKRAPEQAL
Description: (§1) The antibody capture scintillation proximity technique previously described by DeLapp et al was used in a 96-well plate to determine GTP-γ-[35S] binding. One hundred μl (20–40 fmol/well) of membrane preparation from CHO cells that stably express the human M1-M5 muscarinic receptors (PerkinElmer Life and Analytical Sciences, Boston, MA) were incubated with varying concentration of test compound (final concentrations from 50pM to 1μM) for 30 min. One μM final concentration of GDP was added to M2 and M4 receptor membranes before incubation. […] (500 pM final concentration; Perkin Elmer Life and Analytical Sciences) was added to each well followed by 30 min of incubation. Then the labelled membranes were solubilized with 0.27% Nonidet P40 for 30 min where after they were incubated with 20 μl (final dilution of 1:400) of the appropriate rabbit polyclonal Gα antibody (Covance, Princeton, NJ) for 60 min. An anti-Gαq/11 antibody was used for the M1-, M3-, and M5 membranes, whereas an anti-Gαi-3 antibody was used for the M2- and M4 membranes (Eli Lilly and Company, Indianapolis, IN). After 60 min of incubation, 50 μl (1.25 mg/well) anti-rabbit scintillation proximity assay (SPA) beads (GE Healthcare, Piscataway, NJ) were added per well where after the plates were incubated for another 3 h. By use of a Wallac MicroBeta TriLux scintillation counter (PerkinElmer), the plates were centrifuged for 10 min at 700 × g and counted for 1 min per well. The incubations took place at room temperature in GTP-binding assay buffer (20 mM Hepes, 100 mm NaCl, 5 mM MgC12, pH 7.4). The data were analyzed by use of nonlinear regression for a sigmoidal concentration response curve (GraphPad Prism v. 4.0). Data were normalized to a full agonist response (100 μM oxotremorine-M). […] The antagonist percent inhibition data were normalized to data generated with an EC90 concentration of acetylcholine. The mean relative EC50, IC50, and %Emax, and pKi values were calculated as a mean of at least three independent experiments±SEM. In order to obtain relevant comparisons between subtypes, the experimental system is routinely calibrated with reference agonists (oxotremorine-M, pilocarpine, MCN-A343) to measure full and partial agonism as well as to ensure that the system is not under- or over-reporting functional efficacies. The radioligand binding assays have earlier been described.

[3] = target: T1, human M2 muscarinic receptor; assay: as above; format: biochemical
Description: as §1

[4] = BuTAC 0.01 mg/kg, four EPS sensitized monkeys
[5] = antagonist mode, maximal inhibition of EC90 agonist response
[6] = percentage of maximum 100 μM oxotremorine-M signal

| Structure (SMILES) | Rel pEC50 ([1]; negative log-transformed) [M] | % Emax [1] [%] | EPS (EPS sensitized monkeys; BuTAC 0.003 mg/kg) | Mild bradykinesia (monkeys affected) (EPS sensitized monkeys; [4]) | Oral dyskinesia and dystonia (EPS sensitized monkeys; [4]) | Sedation (monkeys affected) (EPS sensitized monkeys; [4]) | EPS (EPS sensitized monkeys; lower doses, 0.001- or 0.003 mg/kg of BuTAC (discussion)) | EC50 [2] [nM] | IC50 [2] [nM] | % Inhibition [2, 5] [%] | Emax [2, 6] [%] | EC50 [3] [nM] | IC50 [3] [nM] | % Inhibition [3, 5] [%] | Emax [3, 6] [%] |
| --- | --- | --- | --- | --- | --- | --- | --- | --- | --- | --- | --- | --- | --- | --- | --- |
| CCCCSc1nsnc1[C@H]1CN2CCC[C@H]1C2 [BuTAC, (5R,6R)-6-(3-butylthio-1,2,5-thiadiazol-4-yl)-1-azabicyclo[3.2.1]octane] | 9.56 ±10.26 | 136.53 ± 17.20 | no EPS | Two | not observed; also recorded: no signs | all four | no signs of EPS |  |  |  |  |  |  |  |  |
| CCCSc1nsnc1[C@H]1CN2CCC[C@H]1C2 [PTAC, (5R,6R) 6-(3-propylthio-1,2,5-thiadiazol-4-yl)-1-azabicyclo-[3.2.1]-octane] |  |  |  |  |  |  |  | 1.95 | 20.4 | 90.45 ± 3.52 | 11.9 ± 3.07 | 0.501 | 3.47 | 16.8 ± 5.49 | 68.5 ± 5.23 |
